Consider twelve compounds from patent US6825230B2, “Spiro and dispiro 1,2,4-trixolane antimalarials” (Medicines for Malaria Venture MMV, priority 2002, dated 2004).

Assay [1] deals with ANKA strain of P. berghei. The assay can be described thus: Single dose STI in vivo screen in infected mice. Set-up: species or system Plasmodium berghei. Conditions: for Survival (days) 10 mg/kg po: single 10 mg/kg po in 3% ethanol and 7% Tween 80; for Survival (days) 10 mg/kg po / Survival (days) 10 mg/kg SSV po / Survival (days) 10 mg/kg sc: untreated 6-7 days; for Activity (%) 10 mg/kg po: single 10 mg/kg po in 3% ethanol and 7% Tween 80 on day 1 post-infection; for Activity (%) 10 mg/kg po / Activity (%) 10 mg/kg SSV po / Activity (%) 10 mg/kg sc: percent reduction in parasitemia on day 3; for Survival (days) 10 mg/kg SSV po: single 10 mg/kg po in SSV; for Activity (%) 10 mg/kg SSV po: single 10 mg/kg po in standard suspending vehicle (SSV) on day 1 post-infection; for Survival (days) 10 mg/kg sc: single 10 mg/kg sc in 3% ethanol and 7% Tween 80; for Activity (%) 10 mg/kg sc: single 10 mg/kg sc in 3% ethanol and 7% Tween 80 on day 1 post-infection.

Assay [2] concerns chloroquine-sensitive NF54 strain of P. falciparum. Nature of the assay: In vitro antimalarial semiautomated microdilution assay ([3H]-hypoxanthine incorporation), NF54 strain. Type of assay: cell-based, Plasmodium falciparum. Particulars: Plasmodium falciparum. Summed up:
(§1)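 IC50 comes from Logit regression of [3H]-hypoxanthine incorporation data. Intraerythrocytic P. falciparum taken from asynchronous stock cultures is exposed to OZ compounds in a semiautomated microdilution format.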
In general terms: In broth dilution the organism is exposed to a series of concentrations in liquid medium.

The test system of assay [3] is chloroquine-resistant K1 strain of P. falciparum. The assay can be described thus: In vitro antimalarial semiautomated microdilution assay ([3H]-hypoxanthine incorporation), K1 strain. Particulars: Plasmodium falciparum. Type of assay: cell-based, Plasmodium falciparum. The method, boiled down:
as §1

[4] abbreviates: NF54, 72 h, read-out: IC50 (ng/ml) NF54, chloroquine-sensitive NF54 strain, 72 h incubation.
The mark [5] stands for this setting: K1, 72 h, read-out: IC50 (ng/ml) K1, chloroquine-resistant K1 strain, 72 h incubation.
Where [6] appears, read: chloroquine-sensitive NF54 strain, 72 h incubation, read-out: IC50 (ng/ml) NF54.
Where [7] appears, read: chloroquine-resistant K1 strain, 72 h incubation, read-out: IC50 (ng/ml) K1.

≈ marks a conversion by molar mass, not a printed value. Read-outs that look alike come from different tables or passages of the source.

Turning to `O=C(O)c1ccccc1C(=O)N1CCC2(CC1)OOC1(O2)C2CC3CC(C2)CC1C3` (stereo not drawn) [OZ132, Adamantane-2-spiro-3′-8′-(2′-carboxybenzoyl)-1′,2′,4′-trioxa-8′-azaspiro[4.5]decane], in assay [1], the “Survival (days) 10 mg/kg po” value worked out at 6.3 days, the “Activity (%) 10 mg/kg po” value was determined as 38%, the “Survival (days) 10 mg/kg SSV po” value came out at 5.7 days and the “Activity (%) 10 mg/kg SSV po” value was determined as 0%. Besides, in assay [1], the “Survival (days) 10 mg/kg sc” value is reported as 6.3 days and the “Activity (%) 10 mg/kg sc” value was 40%. The IC50 in assay [2] (setting [4]) is greater than 10 ng/mL. The IC50 in assay [3] (setting [5]) is 9.8 ng/mL (≈ 23.7 nM).
For `c1ccc2c(c1)OCCC21OOC2(O1)C1CC3CC(C1)CC2C3` (stereo not drawn) [OZ134, Adamantane-2-spiro-3′-1′,2′,4′-trioxolane-5′-spiro-4″-2″, 3″-dihydro-4″H-1″-benzopyran], in assay [1], the “Survival (days) 10 mg/kg po” value was 6.3 days, the “Activity (%) 10 mg/kg po” value is given as 72%, the “Survival (days) 10 mg/kg SSV po” value is on record as 6.0 days and the “Activity (%) 10 mg/kg SSV po” value amounted to 27%. Also, in assay [1], the “Survival (days) 10 mg/kg sc” value was 15.3 days and the “Activity (%) 10 mg/kg sc” value was 99.95%. Further, in assay [2] (setting [4]), the IC50 worked out at 1.1 ng/mL (≈ 3.5 nM). Moreover, the IC50 in assay [3] (setting [5]) is 0.88 ng/mL (≈ 2.8 nM).
On to `O=C(O)c1ccc(C2(c3ccc(C(=O)O)cc3)OOC3(O2)C2CC4CC(C2)CC3C4)cc1` (stereo not drawn) [OZ135, Adamantane-2-spiro-3′-5′,5′-bis(4′-carboxyphenyl)-1′,2′,4′-trioxolane], for which, in assay [1], the “Survival (days) 10 mg/kg po” value is 5.3/5.3/5.3 days, the “Activity (%) 10 mg/kg po” value amounted to 1%, the “Survival (days) 10 mg/kg SSV po” value is 5.3/5.3/5.3 days and the “Activity (%) 10 mg/kg SSV po” value turned out to be 0%. In assay [1], the “Survival (days) 10 mg/kg sc” value is listed as 5.3/5.3/5.3 days and the “Activity (%) 10 mg/kg sc” value was determined as 0%. The IC50 in assay [2] (setting [4]) is greater than 100 ng/mL. Also, in assay [3] (setting [5]), the IC50 was greater than 100 ng/mL.
Consider `O=C1c2ccccc2C(=O)N1[C@H]1CC[C@]2(CC1)OOC1(O2)C2CC3CC(C2)CC1C3` (stereo partly drawn) [OZ136], for which, in assay [1], the “Survival (days) 10 mg/kg po” value is 6.0/6.0/6.0 days, the “Activity (%) 10 mg/kg po” value is 0/0/0%, the “Survival (days) 10 mg/kg SSV po” value is given as 6.0/6.0/6.0 days and the “Activity (%) 10 mg/kg SSV po” value is recorded as 0/0/0%. Moreover, in assay [1], the “Survival (days) 10 mg/kg sc” value was 6.0/6.0/6.0 days and the “Activity (%) 10 mg/kg sc” value is on record as 0/0/0%. Besides, the IC50 in assay [2] (setting [4]) was 21 ng/mL (≈ 51.3 nM). The IC50 in assay [3] (setting [5]) was 23 ng/mL (≈ 56.2 nM).
Consider `COC(=O)c1ccc(C2(c3ccccc3)OOC3(O2)C2CC4CC(C2)CC3C4)cc1` (stereo not drawn) [OZ138, Adamantane-2-spiro-3′-5′-[4′-(methoxycarbonyl)phenyl]-5′-phenyl-1′,2′,4′-trioxolane], for which, in assay [1], the “Survival (days) 10 mg/kg po” value is listed as 5.7 days, the “Activity (%) 10 mg/kg po” value was found to be 0%, the “Survival (days) 10 mg/kg SSV po” value was 6.3 days and the “Activity (%) 10 mg/kg SSV po” value was 5%. Further, in assay [1], the “Survival (days) 10 mg/kg sc” value came to 6.3 days and the “Activity (%) 10 mg/kg sc” value worked out at 7%. Also, the IC50 in assay [2] (setting [4]) was found to be 19 ng/mL (≈ 46.7 nM). In addition, the IC50 in assay [3] (setting [5]) is 10 ng/mL (≈ 24.6 nM).
Regarding `O=C(OC[C@H]1CC[C@]2(CC1)OOC1(O2)C2CC3CC(C2)CC1C3)n1ccnc1` (stereo partly drawn) [OZ141, cis-Adamantane-2-spiro-3′-1′,2′,4′-trioxaspiro[4.5]decane-8′-methyl imidazole-1-carboxylate], in assay [1], the “Survival (days) 10 mg/kg po” value amounted to 8.0 days, the “Activity (%) 10 mg/kg po” value was determined as 98%, the “Survival (days) 10 mg/kg SSV po” value amounted to 8.0 days and the “Activity (%) 10 mg/kg SSV po” value is reported as 97%. Moreover, in assay [1], the “Survival (days) 10 mg/kg sc” value is listed as 8.7 days and the “Activity (%) 10 mg/kg sc” value came to 99.89%. The IC50 in assay [2] (setting [4]) was determined as 1.9 ng/mL (≈ 4.89 nM). In assay [3] (setting [5]), the IC50 stood at 1.7 ng/mL (≈ 4.38 nM).
For `CC(C)(C)NC(=O)N1CCC2(CC1)OOC1(O2)C2CC3CC(C2)CC1C3` (stereo not drawn) [OZ143, Adamantane-2-spiro-3′-8′-(t-butylaminocarbonyl)-1′,2′,4′-trioxa-8′-azaspiro[4.5]decane], in assay [1], the “Survival (days) 10 mg/kg po” value came to 6.7 days, the “Activity (%) 10 mg/kg po” value came to 48%, the “Survival (days) 10 mg/kg SSV po” value turned out to be 6.7 days and the “Activity (%) 10 mg/kg SSV po” value stood at 44%. Moreover, in assay [1], the “Survival (days) 10 mg/kg sc” value is on record as 9.7 days and the “Activity (%) 10 mg/kg sc” value worked out at 99.85%. For the same compound, the IC50 in assay [2] (setting [4]) stood at 1.8 ng/mL (≈ 4.94 nM). The IC50 in assay [3] (setting [5]) was 0.98 ng/mL (≈ 2.69 nM).
As for `S=C(Nc1ccccc1)N1CCC2(CC1)OOC1(O2)C2CC3CC(C2)CC1C3` (stereo not drawn) [OZ144, Adamantane-2-spiro-3′-8′-(phenylaminothiocarbonyl)-1′,2′,4′-trioxa-8′-azaspiro[4.5]decane], in assay [1], the “Survival (days) 10 mg/kg po” value stood at 7.3 days, the “Activity (%) 10 mg/kg po” value was determined as 99.45%, the “Survival (days) 10 mg/kg SSV po” value was 7.3 days and the “Activity (%) 10 mg/kg SSV po” value amounted to 92%. Moreover, in assay [1], the “Survival (days) 10 mg/kg sc” value is given as 16.7 days and the “Activity (%) 10 mg/kg sc” value amounted to 99.94%. In addition, the IC50 in assay [2] (setting [4]) was found to be 2.1 ng/mL (≈ 5.24 nM). Besides, the IC50 in assay [3] (setting [5]) was determined as 1.4 ng/mL (≈ 3.5 nM).
As for `O=C1c2ccccc2C(=O)N1C[C@H]1CC[C@]2(CC1)OOC1(O2)C2CC3CC(C2)CC1C3` (stereo partly drawn) [OZ146], in assay [1], the “Survival (days) 10 mg/kg po” value came to 7.0 days, the “Activity (%) 10 mg/kg po” value is on record as 62%, the “Survival (days) 10 mg/kg SSV po” value worked out at 6.3 days and the “Activity (%) 10 mg/kg SSV po” value was 40%. Besides, in assay [1], the “Survival (days) 10 mg/kg sc” value was 9.0 days and the “Activity (%) 10 mg/kg sc” value turned out to be 91%. Also, in assay [2] (setting [6]), the IC50 was determined as 2.7 ng/mL (≈ 6.38 nM). The IC50 in assay [3] (setting [7]) was 2.2 ng/mL (≈ 5.19 nM).
Take `O=C(OC1CCC2(CC1)OOC1(O2)C2CC3CC(C2)CC1C3)n1ccnc1` (stereo not drawn) [OZ147, Adamantane-2-spiro-3′-1′,2′,4′-trioxaspiro[4.5]decane-8′-yl imidazole-1-carboxylate]: in assay [1], the “Survival (days) 10 mg/kg po” value was 8.0 days, the “Activity (%) 10 mg/kg po” value came out at 85%, the “Survival (days) 10 mg/kg SSV po” value is 8.0 days and the “Activity (%) 10 mg/kg SSV po” value was 71%. Moreover, in assay [1], the “Survival (days) 10 mg/kg sc” value was found to be 19.7 days and the “Activity (%) 10 mg/kg sc” value was found to be 99.89%. Also, the IC50 in assay [2] (setting [6]) was 1.8 ng/mL (≈ 4.81 nM). Also, the IC50 in assay [3] (setting [7]) turned out to be 1.1 ng/mL (≈ 2.94 nM).
Take `O=C1OC2(CCC3(CC2)OOC2(O3)C3CC4CC(C3)CC2C4)c2ccccc21` (stereo not drawn) [OZ149, Adamantane-2-spiro-3′-1′,2′,4′-trioxaspiro[4.5]decane-8′-spiro-1″-3″-oxo-3″H-isobenzofuran]: in assay [1], the “Survival (days) 10 mg/kg po” value is 7.7 days, the “Activity (%) 10 mg/kg po” value is listed as 64%, the “Survival (days) 10 mg/kg SSV po” value was 6.0 days and the “Activity (%) 10 mg/kg SSV po” value is recorded as 3%. Moreover, in assay [1], the “Survival (days) 10 mg/kg sc” value was determined as 14.3 days and the “Activity (%) 10 mg/kg sc” value was 87%. In assay [2] (setting [6]), the IC50 was 8.8 ng/mL (≈ 23 nM). Besides, the IC50 in assay [3] (setting [7]) worked out at 8 ng/mL (≈ 20.9 nM).
Consider `O=C(NCCO)[C@H]1CC[C@]2(CC1)OOC1(O2)C2CC3CC(C2)CC1C3` (stereo partly drawn) [OZ155], for which, in assay [1], the “Survival (days) 10 mg/kg po” value is on record as 6.3 days, the “Activity (%) 10 mg/kg po” value turned out to be 53%, the “Survival (days) 10 mg/kg SSV po” value is recorded as 7.0 days and the “Activity (%) 10 mg/kg SSV po” value was 53%. In assay [1], the “Survival (days) 10 mg/kg sc” value turned out to be 8.3 days and the “Activity (%) 10 mg/kg sc” value came to 73%. In assay [2] (setting [4]), the IC50 is greater than 10 ng/mL. Also, the IC50 in assay [3] (setting [5]) was 12 ng/mL (≈ 34.1 nM).
